Each compound was assayed against USP7 (Homo sapiens, UniProt Q93009) (assay: Ub-AMC assay (USP7 assay)). Conditions: USP7 assay.
Format: biochemical
Set-up: fused on or other part: His tag from pET28aLIC; removed by thrombin for the catalytic domain, no removal step given for the full length
Procedure: USP7 and mutants were tested for their activity in Ubiquitin-AMC assay in presence or absence of inhibitors. […] For the same assay USP7 full length WT and Q351 mutant were used at 50 nM. […] The reaction was incubated 30 min at room temperature prior to the addition of 2 uM Ubiquitin-AMC (Boston Biochem) substrate. […] The calculated initial rate values were plotted against inhibitor concentrations to determine IC50s. All the experimental data were plotted using Prism GraphPad. FIG. 2A illustrates the structure guided optimization for the inhibition of USP7.
ND refers to not disclosed.

Sequence of USP7 (Q93009 208-560 limits assumed): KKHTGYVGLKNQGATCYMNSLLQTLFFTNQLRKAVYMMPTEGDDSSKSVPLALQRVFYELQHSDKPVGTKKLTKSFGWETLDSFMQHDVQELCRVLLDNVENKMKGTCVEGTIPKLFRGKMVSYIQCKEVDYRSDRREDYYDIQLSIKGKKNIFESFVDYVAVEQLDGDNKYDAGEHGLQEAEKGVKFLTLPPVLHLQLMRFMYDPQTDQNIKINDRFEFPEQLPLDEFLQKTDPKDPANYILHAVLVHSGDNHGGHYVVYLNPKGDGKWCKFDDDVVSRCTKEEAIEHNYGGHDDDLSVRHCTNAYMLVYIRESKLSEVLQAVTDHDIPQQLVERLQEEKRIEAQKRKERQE

IC50	Compound
> 10 µM	Nc1ccc2c(c1)NCN(CC1(O)CCN(C(=O)CCc3ccccc3)CC1)C2=O [Compound 58]
> 10 µM	O=C(CCc1ccccc1)N1CCC(O)(Cn2cnc3cc([N+](=O)[O-])ccc3c2=O)CC1 [Compound 56]
> 10 µM	O=C(/C=C/c1ccccc1)N1CCC(O)(Cn2cnc3cc(Cl)ccc3c2=O)CC1 [Compound 26]
> 10 µM	O=C(NCC(=O)N1CCC(O)(Cn2cnc3cc(Cl)ccc3c2=O)CC1)c1ccc2c(Cl)c3c(nc2c1)CCCC3 [Compound 96]
< 0.2 µM	C[C@H](CC(=O)N1CCC(O)(Cn2cnc3cc(Cl)ccc3c2=O)CC1)c1ccccc1 [Compound 1, (R)-7-Chloro-3-((4-hydroxy-1-(3-phenylbutanoyl)piperidin-4-yl)methyl)quinazolin-4(3H)-one]
> 10 µM	O=C(CCc1ccncc1)N1CCC(O)(Cn2cnc3cc(Cl)ccc3c2=O)CC1 [Compound 52]
1 to 10 µM	O=C(CC(c1ccccc1)c1ccccc1)N1CCC(O)(Cn2cnc3cc(Cl)ccc3c2=O)CC1 [Compound 82]
> 10 µM	C=CC(=O)N[C@@H](Cc1ccccc1)C(=O)N1CCC(O)(Cn2cnc3cc(Cl)ccc3c2=O)CC1 [Compound 59]
< 0.2 µM	C[C@H](CC(=O)N1CCC(O)(Cn2cnc3cc(NC(=O)CCN(C)C)ccc3c2=O)CC1)c1ccccc1 [Compound 15, (R)-3-(Dimethylamino)-N-(3-((4-hydroxy-1-(3-phenylbutanoyl)piperidin-4-yl)methyl)-4-oxo-3,4-dihydroquinazolin-7-yl)propanamide]
1 to 10 µM	CC(C(=O)N1CCC(O)(Cn2cnc3cc(Cl)ccc3c2=O)CC1)C(C)c1ccccc1 (centres unmarked) [Compound 93]
> 10 µM	O=C(NCCCC(=O)N1CCC(Cn2cnc3cc(Cl)ccc3c2=O)CC1)c1ccc2c(Cl)c3c(nc2c1)CCCC3 [Compound 100]
> 10 µM	O=C(CCc1ccccn1)N1CCC(O)(Cn2cnc3cc(Cl)ccc3c2=O)CC1 [Compound 34]
> 10 µM	O=C(NCc1ccccc1)N1CCC(O)(Cn2cnc3cc(Cl)ccc3c2=O)CC1 [Compound 36]
1 to 10 µM	CCC(Cc1ccccc1)C(=O)N1CCC(O)(Cn2cnc3cc(Cl)ccc3c2=O)CC1 (centres unmarked) [Compound 94]
> 10 µM	O=C(CCc1ccc([N+](=O)[O-])cc1)N1CCC(O)(Cn2cnc3cc(Cl)ccc3c2=O)CC1 [Compound 61]
> 10 µM	C=CC(=O)NCCCC(=O)N1CCC(O)(Cn2cnc3cc(Cl)ccc3c2=O)CC1 [Compound 46]
1 to 10 µM	Cn1cc(C(=O)CCl)cc1C(=O)NCCCCC(=O)N1CCC(O)(Cn2cnc3cc(Cl)ccc3c2=O)CC1 [Compound 18]
> 10 µM	7-Chloro-3-((4-hydroxy-1-(3-phenylpropyl)piperidin-4-yl)methyl)quinazolin-4(3H)-one [Compound 4]

IC50	Compound
> 10 µM	O=C(C1Cc2ccccc2C1)N1CCC(O)(Cn2cnc3cc(Cl)ccc3c2=O)CC1 [Compound 81]
0.2 to 1 µM	CCN(Cc1ccccc1)C(=O)N1CCC(O)(Cn2cnc3cc(Cl)ccc3c2=O)CC1 [Compound 39]
> 10 µM	O=C(CCc1cccc(Br)c1)N1CCC(O)(Cn2cnc3cc(Cl)ccc3c2=O)CC1 [Compound 24]
> 10 µM	O=C(CCc1ccc2c(Cl)c3c(nc2c1)CCCC3)NCCC(=O)N1CCC(O)(Cn2cnc3cc(Cl)ccc3c2=O)CC1 [Compound 97]
> 10 µM	O=C(CCl)NCCC(=O)N1CCC(O)(Cn2cnc3cc(Cl)ccc3c2=O)CC1 [Compound 44]
> 10 µM	O=C(CCc1ccccc1)N1CCC(Cn2cnc3cc(Cl)ccc3c2=O)CC1 [Compound 60]
> 10 µM	N[C@H](Cc1ccccc1)C(=O)N1CCC(O)(Cn2cnc3cc(Cl)ccc3c2=O)CC1 [Compound 21]
1 to 10 µM	O=C(NCCCCC(=O)N1CCC(O)(Cn2cnc3cc(Cl)ccc3c2=O)CC1)c1ccc2c(c1)CCCN2C(=O)CCl [Compound 19]
> 10 µM	CC(C)(CC(=O)N1CCC(O)(Cn2cnc3cc(Cl)ccc3c2=O)CC1)c1ccccc1 [Compound 28]
0.2 to 1 µM	CC(CC(=O)N1CCC(O)(Cn2cnc3cc(NC(=O)CCN4CCN(C)CC4)ccc3c2=O)CC1)c1ccccc1 (centres unmarked) [Compound 12]
> 10 µM	COc1ccccc1CCC(=O)N1CCC(O)(Cn2cnc3cc(Cl)ccc3c2=O)CC1 [Compound 87]
> 10 µM	O=c1c2ccc(Cl)cc2ncn1CC1(O)CCN(c2cc([N+](=O)[O-])ccn2)CC1 [Compound 83]
> 10 µM	CN(CC(=O)N1CCC(O)(Cn2cnc3cc(Cl)ccc3c2=O)CC1)c1ccccc1 [Compound 79]
> 10 µM	CNC(=O)c1ccc2c(Cl)c3c(nc2c1)CCCC3 [Compound 90]
> 10 µM	O=C(CCc1ccccc1)N1CCC(O)(Cn2cnc3cc(Cl)ccc3c2=O)C1 (centres unmarked) [Compound 5, 7-chloro-3-((3-hydroxy-1-(3-phenylpropanoyl)pyrrolidin-3-yl)methyl)quinazolin-4(3H)-one]
> 10 µM	O=c1c2ccc(Cl)cc2ncn1CC1(O)CCN(C(=S)NCc2ccccc2)CC1 [Compound 37]
< 0.2 µM	CC(C)C(CC(=O)N1CCC(O)(Cn2cnc3cc(NC(=O)CCN4CCN(C)CC4)ccc3c2=O)CC1)c1ccccc1 (centres unmarked) [Compound 47]
< 0.2 µM	C[C@H](CC(=O)N1CCC(O)(Cn2cnc3cc(NC(=O)CCN4CCOCC4)ccc3c2=O)CC1)c1ccccc1 [Compound 14, (R)—N-(3-((4-hydroxy-1-(3-phenylbutanoyl)piperidin-4-yl)methyl)-4-oxo-3,4-dihydroquinazolin-7-yl)-3-morpholinopropanamide]

Second part, the compound before the results:

Compound	IC50
O=C(CCc1ccc(Br)cc1)N1CCC(O)(Cn2cnc3cc(Cl)ccc3c2=O)CC1 [Compound 23]	> 10 µM
CCN(CC(=O)N1CCC(O)(Cn2cnc3cc(Cl)ccc3c2=O)CC1)c1ccccc1 [Compound 80]	> 10 µM
C[C@@H](CC(=O)N1CCC(O)(Cn2cnc3cc(NC(=O)CCN4CCN(C)CC4)ccc3c2=O)CC1)c1ccccc1 [Compound 11, (S)—N-(3-((4-Hydroxy-1-(3-phenylbutanoyl)piperidin-4-yl)methyl)-4-oxo-3,4-dihydroquinazolin-7-yl)-3-(4-methylpiperazin-1-yl)propanamide]	< 0.2 µM
N[C@@H](Cc1ccccc1)C(=O)N1CCC(O)(Cn2cnc3cc(Cl)ccc3c2=O)CC1 [Compound 22]	> 10 µM
CC(=O)Nc1ccc2c(=O)n(CC3(O)CCN(C(=O)CC(C)c4ccccc4)CC3)cnc2c1 (centres unmarked) [Compound 86]	0.2 to 1 µM
O=C(C1CCc2ccccc2C1)N1CCC(O)(Cn2cnc3cc(Cl)ccc3c2=O)CC1 (centres unmarked) [Compound 25]	> 10 µM
CC(=O)Nc1cccc2c(=O)n(CC3(O)CCN(C(=O)C[C@@H](C)c4ccccc4)CC3)cnc12 [Compound 50]	1 to 10 µM
C[C@H](CC(=O)N1CCC(O)(Cn2cnc3c(N)cccc3c2=O)CC1)c1ccccc1 [Compound 103]	1 to 10 µM
Nc1ccc2c(=O)n(CC3(O)CCN(C(=O)CCc4ccccc4)CC3)cnc2c1 [Compound 57]	> 10 µM
CC(=O)N1CCC(O)(Cn2cnc3cc(Cl)ccc3c2=O)CC1 [Compound 6, 3-((1-Acetyl-4-hydroxypiperidin-4-yl)methyl)-7-chloroquinazolin-4(3H)-one]	> 10 µM
O=C(CCc1ccccc1)N1CCC(O)(Cn2cnc3ccc([N+](=O)[O-])cc3c2=O)CC1 [Compound 68]	> 10 µM
C[C@H](c1ccccc1)N(C)C(=O)N1CCC(O)(Cn2cnc3cc(Cl)ccc3c2=O)CC1 [Compound 41]	> 10 µM
O=c1c2ccc(Cl)cc2ncn1CC1(O)CCN(c2ccc([N+](=O)[O-])cn2)CC1 [Compound 78]	> 10 µM
O=C(C1CC1c1ccccc1)N1CCC(O)(Cn2cnc3cc(Cl)ccc3c2=O)CC1 (centres unmarked) [Compound 30]	1 to 10 µM
C[C@@H](c1ccccc1)N(C)C(=O)N1CCC(O)(Cn2cnc3cc(Cl)ccc3c2=O)CC1 [Compound 42]	> 10 µM
O=C(NCCCCC(=O)N1CCC(O)(Cn2cnc3cc(Cl)ccc3c2=O)CC1)c1ccc2c(Cl)c3c(nc2c1)CCCC3 [Compound 98]	0.2 to 1 µM
O=C(CCc1ccccc1)N1CCC(Cn2cnc3cc(Cl)ccc3c2=O)CC1 [Compound 2, 7-Chloro-3-((1-(3-phenylpropanoyl)piperidin-4-yl)methyl)quinazolin-4(3H)-one]	< 0.2 µM
CC(C)C(CC(=O)N1CCC(O)(Cn2cnc3cc(NC(=O)CCN4CCN(C)CC4)ccc3c2=O)CC1)c1ccccc1 (centres unmarked) [Compound 13]	0.2 to 1 µM
C[C@H](Cc1ccccc1)C(=O)N1CCC(O)(Cn2cnc3cc(Cl)ccc3c2=O)CC1 [Compound 72]	0.2 to 1 µM
C[C@@H](Cc1ccccc1)C(=O)N1CCC(O)(Cn2cnc3cc(Cl)ccc3c2=O)CC1 [Compound 73]	> 10 µM
O=C(C#Cc1ccccc1)N1CCC(O)(Cn2cnc3cc(Cl)ccc3c2=O)CC1 [Compound 67]	> 10 µM
O=C(COc1ccccc1)N1CCC(O)(Cn2cnc3cc(Cl)ccc3c2=O)CC1 [Compound 31]	> 10 µM
CC(C)(C)C(=O)Nc1ccc2c(=O)n(CC3(O)CCN(C(=O)CCc4ccccc4)CC3)cnc2c1 [Compound 105]	> 10 µM
Nc1ccc2ncn(CC3(O)CCN(C(=O)CCc4ccccc4)CC3)c(=O)c2c1 [Compound 69]	> 10 µM
O=C(N[C@@H](Cc1ccccc1)C(=O)N1CCC(O)(Cn2cnc3cc(Cl)ccc3c2=O)CC1)c1ccc2c(Cl)c3c(nc2c1)CCCC3 [Compound 99]	1 to 10 µM
CN1CCN(CCC(=O)Nc2ccc3c(=O)n(CC4(O)CCN(C(=O)CC(c5ccccc5)c5ccccc5)CC4)cnc3c2)CC1 [Compound 48]	< 0.2 µM
CC(Cc1ccccc1)C(=O)N1CCC(O)(Cn2cnc3cc(Cl)ccc3c2=O)CC1 (centres unmarked) [Compound 29]	0.2 to 1 µM
O=C(C[C@H](O)c1ccccc1)N1CCC(O)(Cn2cnc3cc(Cl)ccc3c2=O)CC1 [Compound 33]	> 10 µM

Same assay, conditions: USP7 inhibition, FIG. 2A

Compound	fold less active than its enantiomer compound 10
C[C@@H](CC(=O)N1CCC(O)(Cn2cnc3cc(NC(=O)CCN4CCN(C)CC4)ccc3c2=O)CC1)c1ccccc1 [Compound 11, (S)—N-(3-((4-Hydroxy-1-(3-phenylbutanoyl)piperidin-4-yl)methyl)-4-oxo-3,4-dihydroquinazolin-7-yl)-3-(4-methylpiperazin-1-yl)propanamide]	80 fold

Source: patent US11465983B2, “USP7 inhibitors for treating multiple myeloma” (Dana-Farber Cancer Institute, Inc., priority 2017, dated 2022)
